This passage reports IC50 results from US7335722B2, “Peptides used as angiotensin converting enzyme inhibitor and preparation process thereof” (Food Industry Research and Development Institute, priority 1999, dated 2008).

What is called IC50 is the midpoint of a concentration-inhibition curve. A lower IC50 goes with greater potency.

The experiment has as its system ACE. The experiment is described as follows: ACE inhibitory activity (IC50) of the isolated peptides, method not specified. Format: biochemical. As to the method: The five more apparent peaks in FIG. 4 are designated as A3-B4-C6-D1 to D5. The sequences of them are determined by sequence-determining machine. Five short-chain peptides, Val-Leu-Pro (VLP), Ilu-Leu-Pro (ILP), Val-Leu-Tyr (VLY), Val-Leu-Pro-Pro (VLPP) and Ilu-Leu-Pro-Pro (ILPP) are obtained. The ACE inhibitory activity of them (IC50) is determined.

Consider VLPP [Val-Leu-Pro-Pro], for which half-maximal inhibition (IC50) was put at 97 µM.
Turning to Ilu-Leu-Pro-Pro (ILPP), half-maximal inhibition (IC50) required 172 µM.
